The values that follow come from patent US11406614B2, “Composition comprising EPA and DHA for an enhanced efficacy of anticancer agents” (Fresenius Kabi Deutschland GmbH, priority 2016, dated 2022).

The test system of the assay is human colon adenocarcinoma cell line LS174T. As to the kind of experiment: Subcutaneous LS174T xenograft model, tumor growth inhibition. More on the design: species or system BALB/c nude mice. The following applies: mouse, in vivo. Here is the method: Example 2 was repeated with the anticancer agent fluorouracil (5-FU) and utilizing a different xen-ograft model involving the human colon adenocarcinoma cell line LS174T.
The suboptimal dose of 5-FU was determined with 75 mg/kg. The anticancer agent was intraperitoneally administered at the suboptimal dose once a week (days 11, 18 and 25 after inoculation). The emulsions were administered intravenously five times a week (Mo-Fr) at a dose of 2 ml/kg.
The results were statistically analyzed.

For `O=c1[nH]cc(F)c(=O)[nH]1` [Composition 5-FU, fluorouracil], the Suboptimal dose came to 75 mg/kg.
